Results: patent US8426345B2, “Method of drug design” (Alchemia Limited, priority 2005, dated 2013)

Target: T1, Human SST5 somatostatin receptor (Homo sapiens, UniProt P35346)
T1 construct: expressed in transfected cells; host or cells: HEK-293 EBNA cells (membranes)
Test: Filter plate radio-ligand binding assay for SST5 receptor ([125I]SST-14 displacement)
Details: 3P library; for % SST5 radio-ligand binding displaced at conc 0.25: conc 0.25 μM; for % SST5 radio-ligand binding displaced at conc 1.0: conc 1.0 μM; for % SST5 radio-ligand binding displaced at conc 0.5: conc 0.5 μM; for % SST5 radio-ligand binding displaced at conc 10: conc 10 μM

T1 sequence (P35346 whole entry): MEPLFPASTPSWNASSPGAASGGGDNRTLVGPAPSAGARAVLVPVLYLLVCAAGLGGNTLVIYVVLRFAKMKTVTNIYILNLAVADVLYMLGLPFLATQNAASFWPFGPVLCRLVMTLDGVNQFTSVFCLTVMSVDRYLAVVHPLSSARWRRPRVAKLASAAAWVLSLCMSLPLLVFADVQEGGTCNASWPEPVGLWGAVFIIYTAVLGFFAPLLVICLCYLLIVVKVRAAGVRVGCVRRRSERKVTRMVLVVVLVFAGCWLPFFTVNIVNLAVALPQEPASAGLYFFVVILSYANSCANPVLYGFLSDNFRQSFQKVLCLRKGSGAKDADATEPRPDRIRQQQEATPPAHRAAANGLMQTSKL

Row | SMILES | % SST5 radio-ligand binding displaced at conc 0.25 | % SST5 radio-ligand binding displaced at conc 1.0 | also measured
1 | COC[C@H]1O[C@H](OCc2ccc3ccccc3c2)[C@H](NC(=O)CCN)[C@H](OC)[C@@H]1O [Compound 63] |  |  | % SST5 radio-ligand binding displaced at conc 50 (conc 50 μM): + (% SST5 radio-ligand binding displaced at cone (μM) 60>+>40%); % SST5 radio-ligand binding displaced at conc 250 (conc 250 μM): ++ (% SST5 radio-ligand binding displaced at conc (μM) >60%); % SST5 radio-ligand binding displaced at conc 500 (conc 500 μM): ++ (% SST5 radio-ligand binding displaced at conc (μM) >60%)
2 | NCCC(=O)NC1C(OCc2ccc3ccccc3c2)OC(COCc2ccc3ccccc3c2)C(O)C1OCc1ccc2ccccc2c1 (stereo not shown) [Compound 79] | − (% SST5 radio-ligand binding displaced at cone (μM) −<40%) | ++ (% SST5 radio-ligand binding displaced at conc (μM) >60%) | 
3 | NCCC(=O)NC1C(OCc2ccc3ccccc3c2)OC(COCc2ccc3ccccc3c2)C(O)C1OCc1ccc2ccccc2c1 (stereo not shown) [Compound 80] | − (% SST5 radio-ligand binding displaced at cone (μM) −<40%) | ++ (% SST5 radio-ligand binding displaced at conc (μM) >60%) | 
4 | NCCC(=O)NC1C(OCc2ccc3ccccc3c2)OC(COCc2ccccc2)C(O)C1OCc1ccc2ccccc2c1 (stereo not shown) [Compound 81] | − (% SST5 radio-ligand binding displaced at cone (μM) −<40%) | ++ (% SST5 radio-ligand binding displaced at conc (μM) >60%) | 
5 | NCCC(=O)NC1C(OCc2ccc3ccccc3c2)OC(COCc2ccccc2)C(O)C1OCc1ccc2ccccc2c1 (stereo not shown) [Compound 82] | + (% SST5 radio-ligand binding displaced at cone (μM) 60>+>40%) | ++ (% SST5 radio-ligand binding displaced at conc (μM) >60%) | 
6 | NCCC(=O)NC1C(OCc2ccc3ccccc3c2)OC(COCc2ccc(Cl)cc2)C(O)C1OCc1ccc2ccccc2c1 (stereo not shown) [Compound 83] | − (% SST5 radio-ligand binding displaced at cone (μM) −<40%) | ++ (% SST5 radio-ligand binding displaced at conc (μM) >60%) | 
7 | NCCC(=O)NC1C(OCc2ccc3ccccc3c2)OC(COCc2ccc(Cl)cc2)C(O)C1OCc1ccc2ccccc2c1 (stereo not shown) [Compound 84] | − (% SST5 radio-ligand binding displaced at cone (μM) −<40%) | ++ (% SST5 radio-ligand binding displaced at conc (μM) >60%) | 
8 | COC[C@H]1O[C@@H](OCc2ccc3ccccc3c2)[C@H](NC(=O)CCN)[C@H](OCc2ccc3ccccc3c2)[C@@H]1O [Compound 85] |  |  | % SST5 radio-ligand binding displaced at conc 0.5: ++ (% SST5 radio-ligand binding displaced at conc (μM) >60%); % SST5 radio-ligand binding displaced at conc 10: ++ (% SST5 radio-ligand binding displaced at conc (μM) >60%)
9 | COC[C@H]1O[C@H](OCc2ccc3ccccc3c2)[C@H](NC(=O)CCN)[C@H](OCc2ccc3ccccc3c2)[C@@H]1O [Compound 86] |  |  | % SST5 radio-ligand binding displaced at conc 0.5: ++ (% SST5 radio-ligand binding displaced at conc (μM) >60%); % SST5 radio-ligand binding displaced at conc 10: ++ (% SST5 radio-ligand binding displaced at conc (μM) >60%)
10 | COC[C@H]1O[C@H](OCc2ccc3ccccc3c2)[C@H](NC(=O)CCN)[C@@H](OCc2ccc3ccccc3c2)[C@@H]1O [Compound 98] | + (% SST5 radio-ligand binding displaced at cone (μM) 60>+>40%) | ++ (% SST5 radio-ligand binding displaced at conc (μM) >60%) | 
11 | COC[C@H]1O[C@H](OCc2ccc3ccccc3c2)[C@H](NC(=O)C(C)CN)[C@@H](OCc2ccc3ccccc3c2)[C@@H]1O (stereo partly shown) [Compound 99] | − (% SST5 radio-ligand binding displaced at cone (μM) −<40%) | + (% SST5 radio-ligand binding displaced at cone (μM) 60>+>40%) | 
12 | COC[C@H]1O[C@H](OCc2ccc3ccccc3c2)[C@H](NC(=O)CC(C)N)[C@@H](OCc2ccc3ccccc3c2)[C@@H]1O (stereo partly shown) [Compound 100] | + (% SST5 radio-ligand binding displaced at cone (μM) 60>+>40%) | ++ (% SST5 radio-ligand binding displaced at conc (μM) >60%) | 
13 | COC[C@H]1O[C@H](OCc2ccc3ccccc3c2)[C@H](NC(=O)C2CNC2)[C@@H](OCc2ccc3ccccc3c2)[C@@H]1O [Compound 101] | − (% SST5 radio-ligand binding displaced at cone (μM) −<40%) | + (% SST5 radio-ligand binding displaced at cone (μM) 60>+>40%) | 
14 | COC[C@H]1O[C@H](OCc2ccc3ccccc3c2)[C@H](NC(=O)CCN2CCCCC2)[C@@H](OCc2ccc3ccccc3c2)[C@@H]1O [Compound 102] | − (% SST5 radio-ligand binding displaced at cone (μM) −<40%) | − (% SST5 radio-ligand binding displaced at cone (μM) −<40%) | 
15 | COC[C@H]1O[C@H](OCc2ccc3ccccc3c2)[C@H](NC(=O)C2CCCNC2)[C@@H](OCc2ccc3ccccc3c2)[C@@H]1O (stereo partly shown) [Compound 103] | + (% SST5 radio-ligand binding displaced at cone (μM) 60>+>40%) | ++ (% SST5 radio-ligand binding displaced at conc (μM) >60%) | 
16 | COCC1OC(OCc2ccc3ccccc3c2)C(NC(=O)C2CCCCC2N)C(OCc2ccc3ccccc3c2)C1O (stereo not shown) [Compound 104] | − (% SST5 radio-ligand binding displaced at cone (μM) −<40%) | − (% SST5 radio-ligand binding displaced at cone (μM) −<40%) | 
17 | COCC1OC(OCc2ccc3ccccc3c2)C(NC(=O)C2CCCCC2N)C(OCc2ccc3ccccc3c2)C1O (stereo not shown) [Compound 105] | − (% SST5 radio-ligand binding displaced at cone (μM) −<40%) | − (% SST5 radio-ligand binding displaced at cone (μM) −<40%) | 
18 | COC[C@H]1O[C@H](OCc2ccc3ccccc3c2)[C@H](NC(=O)CCN(C)C)[C@@H](OCc2ccc3ccccc3c2)[C@@H]1O [Compound 106] | − (% SST5 radio-ligand binding displaced at cone (μM) −<40%) | − (% SST5 radio-ligand binding displaced at cone (μM) −<40%) | 
19 | COC[C@H]1O[C@H](OCc2ccc3ccccc3c2)[C@H](NC(=O)CCN)[C@@H](OCc2cccc(Cl)c2)[C@@H]1O [Compound 107] | ++ (% SST5 radio-ligand binding displaced at conc (μM) >60%) | ++ (% SST5 radio-ligand binding displaced at conc (μM) >60%) | 
20 | COC[C@H]1O[C@H](OCc2ccc3ccccc3c2)[C@H](NC(=O)CCN)[C@@H](OCc2cc(Cl)ccc2Cl)[C@@H]1O [Compound 108] | + (% SST5 radio-ligand binding displaced at cone (μM) 60>+>40%) | ++ (% SST5 radio-ligand binding displaced at conc (μM) >60%) | 
21 | COC[C@H]1O[C@H](OCc2ccc3ccccc3c2)[C@H](NC(=O)CCN)[C@@H](OCc2ccccc2Cl)[C@@H]1O [Compound 109] | − (% SST5 radio-ligand binding displaced at cone (μM) −<40%) | ++ (% SST5 radio-ligand binding displaced at conc (μM) >60%) | 
22 | COC[C@H]1O[C@H](OCc2ccc3ccccc3c2)[C@H](NC(=O)CCN)[C@@H](OCc2cccc3cccnc23)[C@@H]1O [Compound 110] | ++ (% SST5 radio-ligand binding displaced at conc (μM) >60%) | ++ (% SST5 radio-ligand binding displaced at conc (μM) >60%) | 
23 | COC[C@H]1O[C@H](OCc2ccc3ccccc3c2)[C@H](NC(=O)CCN)[C@@H](OCc2nc3ccccc3s2)[C@@H]1O [Compound 111] | − (% SST5 radio-ligand binding displaced at cone (μM) −<40%) | − (% SST5 radio-ligand binding displaced at cone (μM) −<40%) | 
24 | COC[C@H]1O[C@H](OCc2ccc3ccccc3c2)[C@H](NC(=O)CCN)[C@@H](OCc2nccc3ccccc23)[C@@H]1O [Compound 112] | + (% SST5 radio-ligand binding displaced at cone (μM) 60>+>40%) | ++ (% SST5 radio-ligand binding displaced at conc (μM) >60%) | 
25 | COC[C@H]1O[C@H](OCc2ccc3ccccc3c2)[C@H](NC(=O)CCN)[C@@H](OCc2ccc(Cl)c(Cl)c2)[C@@H]1O [Compound 113] | ++ (% SST5 radio-ligand binding displaced at conc (μM) >60%) | ++ (% SST5 radio-ligand binding displaced at conc (μM) >60%) | 
26 | COC[C@H]1O[C@H](OCc2ccc3ccccc3c2)[C@H](NC(=O)CCN)[C@@H](OCc2cccc3ccccc23)[C@@H]1O [Compound 114] | ++ (% SST5 radio-ligand binding displaced at conc (μM) >60%) | ++ (% SST5 radio-ligand binding displaced at conc (μM) >60%) | 
27 | COC[C@H]1O[C@H](OCc2ccc3ccccc3c2)[C@H](NC(=O)CCN)[C@@H](OCc2ccc(Cl)cc2Cl)[C@@H]1O [Compound 115] | + (% SST5 radio-ligand binding displaced at cone (μM) 60>+>40%) | ++ (% SST5 radio-ligand binding displaced at conc (μM) >60%) | 
28 | COC[C@H]1O[C@H](OCc2ccc3ccccc3c2)[C@H](NC(=O)CCN)[C@@H](OCc2ccc3ccccc3n2)[C@@H]1O [Compound 116] | + (% SST5 radio-ligand binding displaced at cone (μM) 60>+>40%) | ++ (% SST5 radio-ligand binding displaced at conc (μM) >60%) | 
29 | COC[C@H]1O[C@H](OCc2ccc3ccccc3c2)[C@H](NC(=O)CCN)[C@@H](OCc2cccc(Cl)c2Cl)[C@@H]1O [Compound 117] | ++ (% SST5 radio-ligand binding displaced at conc (μM) >60%) | ++ (% SST5 radio-ligand binding displaced at conc (μM) >60%) | 
30 | COC[C@H]1O[C@H](OCc2ccc3ccccc3c2)[C@H](NC(=O)CCN)[C@@H](OCc2ccc(Oc3ccccc3)cc2)[C@@H]1O [Compound 118] | ++ (% SST5 radio-ligand binding displaced at conc (μM) >60%) | ++ (% SST5 radio-ligand binding displaced at conc (μM) >60%) | 
